Experimental data reported in ChEMBL document CHEMBL1122687, “Sulfur analogues of psychotomimetic agents. 3. Ethyl homologues of mescaline and their monothio analogues” (1984).

Organism: Homo sapiens
Assay: Psychotomimetic potency of compound relative to that of mescaline (Human potency of mescaline = 1 MU)
Assay type: functional

Question: With `CCCCSc1c(OC)cc(CCN)cc1OC` as the compound, how does the Relative activity read?
Answer: 3

Question: `CCOc1cc(CCN)cc(OC)c1OCC` was tested. Which Relative activity did it give?
Answer: 1.5

Question: `CCSc1cc(CCN)cc(OC)c1OC` was tested. Which Relative activity did it give?
Answer: 6

Question: How did the Relative activity turn out when `CCOc1cc(CCN)cc(SC)c1OCC` was run?
Answer: 2

Question: `CCOc1c(OC)cc(CCN)cc1SCC` was tested. Which Relative activity did it give?
Answer: 2

Question: For `CCOc1cc(CCN)cc(OC)c1SCC`, which Relative activity is on record?
Answer: 4

Question: Which Relative activity does the source give for `CCOc1cc(CCN)cc(OC)c1OC` here?
Answer: 1

Question: How did the Relative activity turn out when `CCCSc1c(OC)cc(CCN)cc1OC` was run?
Answer: 16

Question: How did the Relative activity turn out when `CCCCOc1c(OC)cc(CCN)cc1OC` was run?
Answer: 2

Question: `CCOc1cc(CCN)cc(OCC)c1OC` was tested. Which Relative activity did it give?
Answer: <1

Question: `CCOc1cc(CCN)cc(OCC)c1SC` was tested. Which Relative activity did it give?
Answer: <1

Question: With `CCOc1cc(CCN)cc(SC)c1OC` as the compound, how does the Relative activity read?
Answer: <1

Question: For `CCOc1cc(CCN)cc(SCC)c1OCC`, which Relative activity is on record?
Answer: <1

Question: How did the Relative activity turn out when `CCCOc1cc(CCN)cc(OC)c1OC` was run?
Answer: <1

Question: For `COc1cc(CCN)cc(OC)c1SC`, which Relative activity is on record?
Answer: 12

Question: How did the Relative activity turn out when `CCOc1c(OC)cc(CCN)cc1OC` was run?
Answer: 6

Question: `CCOc1c(OC)cc(CCN)cc1SC` was tested. Which Relative activity did it give?
Answer: 6

Question: `CCSc1c(OC)cc(CCN)cc1OC` was tested. Which Relative activity did it give?
Answer: 20

Question: How did the Relative activity turn out when `CCCOc1c(OC)cc(CCN)cc1OC` was run?
Answer: 10

Question: How did the Relative activity turn out when `CCOc1cc(CCN)cc(OCC)c1SCC` was run?
Answer: <1

Question: `CCOc1cc(CCN)cc(SCC)c1OC` was tested. Which Relative activity did it give?
Answer: <1

Question: Which Relative activity does the source give for `CCOc1cc(CCN)cc(OCC)c1OCC` here?
Answer: <1

Question: For `CCOc1cc(CCN)cc(OC)c1SC`, which Relative activity is on record?
Answer: 4

Organism: Homo sapiens
Assay: Psychotomimetic potency of compound relative to that of mescaline(Human potency of mescaline = 1 MU)
Assay type: functional

Question: Which Relative activity does the source give for `COc1cc(CCN)cc(SC)c1OC` here?
Answer: 6

Question: For `COc1cc(CCN)cc(OC)c1OC` [MESCALINE], which Relative activity is on record?
Answer: 1
